Measured values taken from patent US6573253B2, “Methods for the administration of amifostine and related compounds” (MedImmune Oncology Inc., priority 1997, dated 2003).
“And” between values parts separate entries of the source, which are not always exact repeats. Identical values can stand only once.

What was measured:
MDS = assay: Subcutaneous amifostine in MDS patients: hematologic responses and adverse effects; assay type: in vivo, human
Excerpt: All patients in the study had MDS and were diagnosed as having one of the following subtypes: refractory anemia, refractory anemia with ring sideroblasts, refractory anemia with excess blasts or refractory anemia with excess blasts in transformation. In addition, the patients had thrombocytopenia (platelets <100,000/μl), neutropenia (ANC or absolute neutrophil count<1500/μl) or a hemoglobin untransfused <10 g/dl and/or were transfusion-dependent as defined by requiring at least 4 units of RBC in the 10 weeks prior to entry.
(§1) Blood pressure was monitored before treatment and after the first dose at 30 minute intervals for up to 90 minutes. […] At least three patients were treated with each dose. […] Hematologic responses to treatment were evaluated by measuring neutrophil count (ANC), platelet count, erythroid response including hemoglobin levels and reticulocyte count, and in vitro colony formation.

[1] = test system: Bone marrow progenitor cells; assay: In vitro colony formation (CFU-GEMM, BFU-E, CFU-GM) of bone marrow progenitor cells from treated MDS patients, methylcellulose assays; assay type: cell-based, human; conditions: bone marrow progenitor cells from MDS patients after s.c. amifostine
Procedure: as §1
Bone marrow progenitor cells were recovered from the treated patients and assayed for their ability to form CFU-GEMM, BFU-E and CFU-GM colonies in standard methylcellulose assays.

mucositis = assay: Rat RT model: mucosal radioprotection by IV or SC amifostine at various times before 15.3 Gy head and neck irradiation (mucositis score); assay type: in vivo; conditions: rats, 200 mg/kg (1200 mg/m^2), given up to 4 hours prior to radiation therapy (15.3 Gy)
Procedure: A rat RT model was used to examine the protective effects of amifostine following IV as well as subcutaneous (SC) administration, and to investigate the length of time between amifostine administration and RT. In these experiments, rats were given 200 mg/kg (1200 mg/m^2) of amifostine IV or SC, and their head and neck regions exposed to 15.3 Gy of gamma irradiation at various times following amifostine administration. For 10 days after treatment, the rats were weighed and the oral cavities of the rats were examined for signs of mucositis. Mucosal erythema and mucosal edema were scored according to 0-5 and 0-2 scales, respectively, with the scores added to indicate overall mucositis.

[2] = human, in vivo
Procedure: All subjects were sequestered at the study site from the evening before the administration of the first dose of study drug until the final whole blood sample was obtained.
Blood samples (5 to 7 mL each) were collected either by venipuncture or indwelling venous catheter (IVC) heparin lock. If IVC was used, it was inserted in the arm opposite the infusion site. […] For either line, the first 3 to 5 cc of blood were discarded (void volume) prior to blood collection.
To prevent further oxidation of WR-1065, PCA/EDTA was added to the samples prior to centrifugation. Because PCA/EDTA ruptures the cellular content of the blood, the samples were centrifuged for a longer period of time to prevent contamination/metabolism of the active metabolite. Consequently, only the clear supernatant (serum) was used for analysis of WR-1065. In contrast, no PCA/EDTA was added to the blood samples designated for analysis of the parent drug; therefore, plasma samples were prepared for analysis of the parent drug.
WINNONLIN, the WINDOWS version of PCNONLIN, was used for the determination of pharmacokinetic parameters for each subject following each route of administration. Non-compartmental modelling of the data was performed.
AUCs were calculated using extrapolation according to a straightline from the last non-zero point.
The AUCs were then analyzed using an analysis of variance (ANOVA) model with route, period and subject as variables. Sequence was not included in the model as this variable was uniquely determined by route and period. The confidence interval on the ratio of the subcutaneous or oral route to the intravenous route was calculated using the mean square error from the entire ANOVA model.

[3] = test system: radiation-induced xerostomia
Procedure: In the phase II study all patients were undergoing radiation therapy for histologically confirmed squamous cell carcinoma of the head and neck region. Patients were allowed to enter the study following surgery with curative intent as soon as the wound has healed but no later than 12 weeks post operatively.
Blood pressure and pulse were obtained prior to subcutaneous administration and repeated 10 minutes following administration. An IV was available to treat hypotension if it occurred. Patients received full supportive care including antiemetics, antibiotics, transfusions of blood and blood products, and the like when needed. Prophylactic antiemetics were not administered. If patients experienced nausea and vomiting they were administered either prochlorperazine, 10 mg PO, 30 minutes prior to therapy, repeating every 4 to 6 hours following therapy as needed or ondansetron, 8 mg PO, 30 minutes prior to therapy, repeating every 4 hours following therapy as needed.
Radiation therapy was provided with linear accelerators with appropriate photon and electron boosting to the nodes or Cobalt 60. The appropriate photon energy was based on optimizing the radiation therapy dose distribution within the target volume and minimizing dose to normal tissue. Patients were reproducibly mobilized and radio-opaque markers were used to delineate the extent of nodal disease and, where possible, the primary tumor. All fields were treated once daily at 1.8-2.0 Gy per fraction, five days per week to a total dose of:
Xerostomia was graded in each subject according to the RTOG criteria.

[4] = test system: radiation-induced xerostomia; conditions: IV Amifostine + RT, cited from earlier work
[5] = cited from earlier work
[6] = Phase I three-way crossover study: safety assessments / adverse events (NCI Common Toxicity Criteria)
Procedure: If hypotension occurred, the subject was to receive a rapid infusion of 500 mL normal saline and was to be kept supine or in the Trendelenburg position until blood pressure returned to baseline. During this time, blood pressure was monitored every 3 minutes.
All subjects who had received at least one dose of protocol therapy were considered evaluable for safety. […] Toxicity was based on National Cancer Institute (NCI) Common Toxicity Criteria.
Because this was a crossover study to be performed on three successive days, toxicities were assigned to the route of administration on the day the toxicity occurred. A full nonparametric crossover model (likelihood of ratio test) was used to assess toxicities which corrected for period and sequence effects. A PROC CATMOD of SAS@ was used for this analysis.

[7] = test system: radiation-induced mucositis; assay: Radiation-induced mucositis model, inferior lip of mice (Parkins et al.): body weight, mucosal erythema and edema scores; conditions: for Erythema (score) / Oedema (score): individual mice and Mean
[8] = MDS patients, s.c. 500 mg once/day, 17 evaluable
[9] = SC amifostine, head and neck cancer patients
[10] = intravenous, cancer patients, plasma
[11] = Intravenous 200 mg/m^2, N = 12, table cells give subject numbers
[12] = Intravenous 200 mg/m^2, N = 12, table cells give subject numbers, listed as amifostine
[13] = Oral 500 mg, N = 12, table cells give subject numbers
[14] = Amifostine (l.p.) at 200 mg/kg + Irradiation (16.5 Gy), day 6 after treatment, 200 mg/kg
[15] = Amifostine (l.p.) at 200 mg/kg + Irradiation (16.5 Gy), day 7 after treatment, 200 mg/kg
[16] = Amifostine (l.p.) at 200 mg/kg + Irradiation (16.5 Gy), day 13 after treatment, 200 mg/kg
[17] = Amifostine (l.p.) at 200 mg/kg + Irradiation (16.5 Gy), day 14 after treatment, 200 mg/kg
[18] = Amifostine (l.p.) at 400 mg/kg + Irradiation (16.5 Gy), day 13 after treatment, 400 mg/kg
[19] = Amifostine (l.p.) at 400 mg/kg + Irradiation (16.5 Gy), day 14 after treatment, 400 mg/kg
[20] = Amifostine (s.c.) at 200 mg/kg + Irradiation (16.5 Gy), day 9 after treatment, 200 mg/kg
[21] = Amifostine (s.c.) at 400 mg/kg + Irradiation (16.5 Gy), day 14 after treatment, 400 mg/kg

NCCCNCCSP(=O)(O)O [Amifostine, S-2-(3-aminopropylamino)ethyl dihydrogen phosphorothioate]
Platelet response, patients with >50,000/μl: Responders (number) (MDS; 3 evaluable): 3
Platelet response, patients with >50,000/μl: Responders (percent) (MDS; 3 evaluable): 100%
BM Blasts ↑ (RAEB): patients (number; RAEB-t, AML) (MDS; 5 evaluable): 2 (RAEB-t, AML)
Platelet response, patients with <50,000/μl: Responders (number) (MDS; 6 evaluable): 0
Hemoglobin >1.5 g/dl ↑: Responders (number) (MDS; 7 evaluable): 1
Ring Sideroblast ↓: Responders (number) (MDS; 7 evaluable): 3
ANC response, patients with ANC < 1000: Responders (number) (MDS; 8 evaluable): 3
ANC response, patients with ANC < 1000: Responders (percent) (MDS; 8 evaluable): 38.5%
ANC response, patients with ANC > 1000: Responders (number) (MDS; 9 evaluable): 2
ANC response, patients with ANC > 1000: Responders (percent) (MDS; 9 evaluable): 22%
Platelets ≧ 50% ↑: Responders (number) (MDS; 9 evaluable): 3
Platelets ≧ 50% ↑: Responders (percent) (MDS; 9 evaluable): 33%
RBC Transfusion (≦50% ↓): Responders (number) (MDS; 13 evaluable): 0
Retic count ≧ 50% ↑: Responders (number) (MDS; 14 evaluable): 10
Retic count ≧ 50% ↑: Responders (percent) (MDS; 14 evaluable): 71%
ANC ≧ 50% ↑: Responders (number) (MDS; [8]): 5
ANC ≧ 50% ↑: Responders (percent) (MDS; [8]): 29%
fatigue (grade I/II): patients (MDS; MDS patients, s.c. amifostine): four patients
local reaction (grade III): patients (MDS; MDS patients, s.c. amifostine): one patient
metallic taste (grade I/II): patients (MDS; MDS patients, s.c. amifostine): one patient
nausea (grade I/II): patients (MDS; MDS patients, s.c. amifostine): one patient
rash (grade I/II): patients (MDS; MDS patients, s.c. amifostine): six patients
vomiting (grade I/II): patients (MDS; MDS patients, s.c. amifostine): one patient
formation of CFU-GEMM, BFU-E and CFU-GM colonies [1]: produced bone marrow colonies
radioprotection (mucositis) of SC versus IV administration (mucositis): comparable to IV administration
time after administration at which concentration dropped below 10 μM, amifostine (parent drug plus active metabolite) ([2]; iv): 45 min
time after administration at which concentration dropped below 10 μM, amifostine (parent drug) ([2]; iv): approximately 30 minutes
time after administration at which concentration dropped below 1.0 μM, amifostine (parent drug plus active metabolite) ([2]; po): 10 to 13 min
time after administration at which concentration fell below 10 μM, amifostine (parent drug plus active metabolite) ([2]; sc): approximately 50 minutes
time after administration at which concentration fell below 10 μM, amifostine (parent drug) ([2]; sc): approximately 45 minutes
peak levels (maximum whole blood concentration) ([2]; male, iv): about 100 μM
AUC of Combined (parent drug and active metabolite), 500 mg Oral (PO) ([2]; male, po): 0 µM·min
maximum blood levels ([2]; male, sc): about 12 μM
time to maximum and sustained whole blood concentration ([2]; male, sc): 15 to 45 min
rate of acute xerostomia with subcutaneous versus IV amifostine ([3]; SC amifostine + RT): comparable rate
Grade 3 hypotension [3, 9]: no reports
Grade 3 nausea/vomiting [3, 9]: no reports
≧Grade 2 acute xerostomia Incidence, All patients ([4]; 200 mg/m^2 3 minute infusion 15 to 30 minutes before RT, N 148): 51%
≧Grade 2 acute xerostomia Incidence, Patients receiving ≧60 Gy RT ([4]; 200 mg/m^2): 51%
≧Grade 2 acute xerostomia, Median cumulative RT dose to onset ([4]; 200 mg/m^2): 60 Gy
≧Grade 2 acute xerostomia, Median time to onset ([4]; 200 mg/m^2): 45 days
amifostine remaining in the plasma ([5]; 6 minutes after intravenous administration): Less than 10%
distribution half-life [5, 10]: less than 1 minute
elimination half-life [5, 10]: approximately 9 minutes
Headache: subjects who reported the adverse event [6, 11]: 1008
Hypotension: subjects who reported the adverse event [6, 11]: 1003
Lightheadedness: subjects who reported the adverse event [6, 11]: 1003
Somnolence: subjects who reported the adverse event [6, 11]: 1008
Vomiting: subjects who reported the adverse event [6, 11]: 1008
Hypotension: subjects who reported the adverse event [6, 12]: one subject
Nausea: subjects who reported the adverse event [6, 12]: five subjects
Vomiting: subjects who reported the adverse event [6, 12]: one subject
Hypotension: subjects who reported the adverse event [6, 13]: 1003
Lightheadedness: subjects who reported the adverse event [6, 13]: 1003
Hypotension: subjects who reported the adverse event ([6]; Oral 500 mg, N = 12, table cells give subject numbers, listed as amifostine): one subject
incidence of hypotension ([6]; Subcutaneous 500 mg, N = 12): no incidence
Nausea: subjects who reported the adverse event ([6]; Subcutaneous 500 mg, N = 12, table cells give subject numbers): 1002
Nausea: subjects who reported the adverse event ([6]; Subcutaneous 500 mg, N = 12, table cells give subject numbers, listed as amifostine): one subject
Grade 2 or higher laboratory toxicity (NCI Common Toxicity Criteria) ([6]; after last dose, 12 subjects): none of the subjects
serum creatinine value, Subject 1010 ([6]; after last dose, baseline 0.90 mg/dL, reference range 0.70 to 1.40 mg/dL): 0.60 mg/dL
changes in physical examination, weight and vital signs ([6]; after the last dose of amifostine): No remarkable changes
severity of adverse events ([6]; all three routes): mild in severity, transient
discontinuation due to adverse events ([6]; all three routes, 12 subjects): No subject discontinued
subjects who reported adverse events ([6]; intravenous amifostine, 12 subjects): Five subjects
subjects who reported adverse events ([6]; oral amifostine, 12 subjects): one subject
tolerability ([6]; regardless of route of administration): well tolerated
subjects who reported adverse events ([6]; subcutaneous amifostine, 12 subjects): one subject
Erythema (score) [7, 14]: 0.5 and 0
Oedema (score) [7, 14]: 1 and 0 and 0.5
Erythema (score) [7, 15]: 0.5 and 0
Oedema (score) [7, 15]: 1 and 0 and 0.5
Oedema (score) ([7]; Amifostine (l.p.) at 200 mg/kg + Irradiation (16.5 Gy), day 12 after treatment, 200 mg/kg): 2 and 1 and 0.5
Erythema (score) [7, 16]: 0.5 and 2 and 1
Oedema (score) [7, 16]: 0.5 and 2 and 1
Erythema (score) [7, 17]: 0.5 and 2 and 1 and 0
Oedema (score) [7, 17]: 0.5 and 2 and 1 and 0
Oedema (score) ([7]; Amifostine (l.p.) at 400 mg/kg + Irradiation (16.5 Gy), day 6 after treatment, 400 mg/kg): 0.5 and 0
Oedema (score) ([7]; Amifostine (l.p.) at 400 mg/kg + Irradiation (16.5 Gy), day 7 after treatment, 400 mg/kg): 0.5 and 0
Erythema (score) ([7]; Amifostine (l.p.) at 400 mg/kg + Irradiation (16.5 Gy), day 12 after treatment, 400 mg/kg): 3 and 1 and 2
Erythema (score) [7, 18]: 0 and 0.5
Oedema (score) [7, 18]: 0.5 and 0
Erythema (score) [7, 19]: 0 and 0.5
Oedema (score) [7, 19]: 0.5 and 0
Erythema (score) ([7]; Amifostine (s.c.) at 200 mg/kg + Irradiation (16.5 Gy), day 7 after treatment, 200 mg/kg): 0 and 0.5
Erythema (score) [7, 20]: 0.5 and 1 and 3
Oedema (score) [7, 20]: 0.5 and 1 and 2
Erythema (score) ([7]; Amifostine (s.c.) at 200 mg/kg + Irradiation (16.5 Gy), day 13 after treatment, 200 mg/kg): 1 and 0.5 and 2
Oedema (score) ([7]; Amifostine (s.c.) at 200 mg/kg + Irradiation (16.5 Gy), day 14 after treatment, 200 mg/kg): 0.5 and 1 and 0
Oedema (score) ([7]; Amifostine (s.c.) at 400 mg/kg + Irradiation (16.5 Gy), day 6 after treatment, 400 mg/kg): 1 and 0.5 and 0
Oedema (score) ([7]; Amifostine (s.c.) at 400 mg/kg + Irradiation (16.5 Gy), day 7 after treatment, 400 mg/kg): 0.5 and 0
Erythema (score) ([7]; Amifostine (s.c.) at 400 mg/kg + Irradiation (16.5 Gy), day 13 after treatment, 400 mg/kg): 1 and 0 and 0.5
Erythema (score) [7, 21]: 1 and 0 and 0.5
Oedema (score) [7, 21]: 1 and 0 and 0.5
mucosal edema scores as compared to saline plus irradiation ([7]; both injection methods (i.p., s.c.)): decreased
average erythema score as compared to saline plus irradiation ([7]; i.p and s.c. administration): decreased
reduction in body weight after irradiation ([7]; i.p. or s.c. injection of amifostine, irradiated mice): prevented
effect of increasing the dose from 200 mg/kg to 400 mg/kg ([7]; irradiated mice): minimal additional benefits
efficacy at the time points of maximal adverse effects (day 9 body weight, day 12 erythema and edema) ([7]; subcutaneous, 200 mg/kg): highest efficacy
